PubChem BioAssay (NCI)
Several values for one entry are separate records, joined by “and”; a condition that tells them apart may be missing. Equal entries are not always repeated.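 Step 1: Grow cells in 96-well plates. Step 2: Expose to compound for 48 hours at 5 concentrations. Step 3: Interpolate endpoints linearly; if unreached, use highest concentration. GI50 is the concentration that inhibits growth by half. Definition used: TGI = concentration required for complete inhibition of growth.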

Assays:
Experiment in all cases: DTP human tumour cell line panel, 48 h
ACHN renal = system: ACHN renal
BT-549 breast = system: BT-549 breast
CCRF-CEM leukemia = system: CCRF-CEM leukemia
HT29 colon = system: HT29 colon
NCI/ADR-RES ovarian = system: NCI/ADR-RES ovarian
OVCAR-4 ovarian = system: OVCAR-4 ovarian
OVCAR-8 ovarian = system: OVCAR-8 ovarian
SN12C renal = system: SN12C renal
SR leukemia = system: SR leukemia
U251 CNS = system: U251 CNS
T-47D breast = system: T-47D breast

Structure (SMILES)	TGI (ACHN renal) [µM]	TGI (BT-549 breast) [µM]	TGI (CCRF-CEM leukemia)	TGI (HT29 colon)	TGI (NCI/ADR-RES ovarian) [µM]	TGI (OVCAR-4 ovarian) [µM]	TGI (OVCAR-8 ovarian)	TGI (SN12C renal)	TGI (SR leukemia) [µM]	TGI (U251 CNS)	TGI (T-47D breast) [µM]	GI50 (OVCAR-4 ovarian)
O=[N+]([O-])c1cc(Cl)ccc1S(=O)(=O)N1CCCc2cc(Cl)ccc21	> 100	> 100	> 100 µM	> 100 µM	> 100	> 100	> 100 µM	> 100 µM	–	–	–	–
COC[C@@H](Cc1ccc(OC)c(OC)c1)[C@@H](COC)Cc1ccc(OC)c(OC)c1	> 100	–	> 100 µM	> 100 µM	–	–	> 100 µM	> 100 µM	> 100	> 100 µM	–	–
CCC1(O)CC(OC2CC(N(C)C)C(OC3CC(O)C(OC4CCC(=O)C(C)O4)C(C)O3)C(C)O2)c2c(O)c3c(c(O)c2C1C(=O)OC)C(=O)c1cccc(O)c1C3=O (centres undefined)	–	–	0.0328 µM	0.103 µM and 0.0147 µM	–	0.21	0.9 µM and 0.187 µM	0.175 µM	–	1.42 µM	–	–
CN(CCO)/N=N/c1[nH]ncc1C(N)=O	–	–	> 100 µM	> 100 µM	> 100	> 100	> 100 µM	> 100 µM	–	> 100 µM	–	–
C=CC1(c2ccc(OC)cc2)OCCCO1	> 100	–	> 100 µM	> 100 µM	> 100	> 100	> 100 µM	> 100 µM	> 100	> 100 µM	> 100	–
COc1ccccc1NCC(=O)Nn1c(C)nc2ccc(S(=O)(=O)Nc3ccccc3OC)cc2c1=O	> 100	> 100	> 100 µM	> 100 µM	> 100	> 100	> 100 µM	> 100 µM	> 100	> 100 µM	–	–
N#C/C(=C\c1ccccc1Br)C(=O)c1ccccc1	> 89.6	–	38.6 µM	> 100 µM	–	58.8	> 38.6 µM	> 76.6 µM	> 83.8	> 71.4 µM	–	–
O=C1N[C@@H](COc2ccc(C=Nc3ccc(CCc4ccc(N=Cc5ccc(OC[C@@H]6COC(=O)N6)cc5)cc4)cc3)cc2)CO1	> 100	–	–	> 100 µM	> 100	> 100	> 100 µM	> 100 µM	> 100	> 100 µM	> 100	–
COc1ccccc1N=C1SCCN1C(=S)Nc1ccc(S(=O)(=O)/N=C/N(C)C)cc1	> 100	49.8	> 100 µM	–	> 100	> 100	> 100 µM	> 100 µM	–	> 100 µM	> 100	–
CN(C)CCNc1nc2c(no[n+]2[O-])c2ccccc12	40.4	–	> 100 µM	> 100 µM	58.7	61.1	32.8 µM	> 100 µM	74.8	83.8 µM	> 100	–
CC(=O)O[C@H]1CC[C@H]2[C@@H]3CCC(C(C)=O)[C@H](C(=O)O)[C@H]3CC[C@]12C (some centres undefined)	–	> 100	> 100 µM	> 100 µM	> 100	> 100	> 100 µM	–	> 100	> 100 µM	–	–
CCCCCCCCCCSCC(CO)NC(=O)/C=C/c1c(C)[nH]c(=O)[nH]c1=O (centres undefined)	–	–	3.97 µM and 2.97 µM	> 50 µM	> 50	4.01	18.6 µM and 10.4 µM	17.7 µM and > 32.8 µM	–	3.7 µM and 10.7 µM	–	0.912 µM and 0.192 µM
CC(=O)N(CN1C(=O)CCC1C(=O)O)c1ccccc1Cl (centres undefined)	> 100	–	> 100 µM	> 100 µM	> 100	> 100	> 100 µM	> 100 µM	–	> 100 µM	> 100	–
CC(=O)n1ccc2c(Cl)ncnc21	> 100	–	> 100 µM	> 100 µM	–	–	> 100 µM	> 100 µM	> 100	> 100 µM	–	–
COc1ccccc1NS(=O)(=O)c1ccc2ncn(NS(=O)(=O)c3ccc(Cl)cc3)c(=O)c2c1	> 100	> 100	> 100 µM	> 100 µM	> 100	> 100	> 100 µM	> 100 µM	> 100	> 100 µM	–	–
CC(C)N(C(C)C)P(OCCC#N)OC1CC(n2cnc3c(=O)[nH]cnc32)OC1COC(=O)NCCCCCCNC(=O)OC(C)(C)c1ccc(-c2ccccc2)cc1 (centres undefined)	> 100	–	43.8 µM	> 100 µM	–	38.2	92.4 µM	54 µM	–	43 µM	–	–
CCN(CC)CCNc1ccc2ncn3c4cc(=O)ccc4c(O)c1c23	10.6	–	16.8 µM	11.5 µM	–	13.5	7.77 µM	15.7 µM	9.75	6.59 µM	–	–
CC(=O)CC(=O)/C=C/c1cccs1	> 100	–	> 100 µM	> 100 µM	–	> 100	> 100 µM	> 100 µM	> 100	> 100 µM	–	–
